This is an account of results in US11446287B2, “Compounds and methods for EP300 or CBP modulation and indications therefor” (Opna Immuno-Oncology SA, priority 2019, dated 2022).

pIC50: −log10 of the molar value.

Usually pIC50 stands for −log10 of the IC50, conventionally taken in molar units.

The target in the test is T1, Recombinant human BRD4 containing dual bromodomains (BRD4-BD12 (1-477)) (Homo sapiens, UniProt O60885).
T1 construct: Recombinant human BRD4 containing dual bromodomains (BRD4-BD12 (1-477)); made in house; host or cells: E. coli BL21-CodonPlus (DE3), modified pET vector
The experiment in a line: BRD4 Alphascreen binding assay. The essentials:
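AlphaScreen proximity between Ni-chelate-bound BRD4-BD12 (1-477) and streptavidin-captured H4 K5/K8/K12/K16-acetyl peptide measured after 1 h room-temperature compound incubation and 30 min with 7.5 μg/ml beads. Buffer: 50 mM HEPES pH 7.5, 50 mM NaCl, 0.01% BSA, 0.01% Triton X-100; data plate-normalized and four-parameter fit for IC50.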
(In general: Alpha assays give light when donor and acceptor beads are brought close together.)

As for `CCOc1cc(C(=O)O)cc(OCC)c1-n1cc(-c2cncc(Cl)c2)c2ncc(-c3c(C)noc3C)cc21` [P-0193, 4-(3-(5-chloropyridin-3-yl)-6-(3,5-dimethylisoxazol-4-yl)-1H-pyrrolo[3,2-b]pyridin-1-yl)-3,5-diethoxybenzoic acid], the pIC50 was 5.10 to 6.00. With `CCOc1cc(C(=O)O)cc(OCC)c1-n1cc(-c2ccc(OC)cc2F)c2ncc(-c3c(C)noc3C)cc21` [P-0194, 4-(6-(3,5-dimethylisoxazol-4-yl)-3-(2-fluoro-4-methoxyphenyl)-1H-pyrrolo[3,2-b]pyridin-1-yl)-3,5-diethoxybenzoic acid], the negative-log IC50 (pIC50) is 5.10 to 6.00.

Consider `CCOc1cc(C(=O)O)cc(OCC)c1-n1cc(-c2cnn(C)c2)c2ncc(-c3c(C)noc3C)cc21` [P-0195, 4-(6-(3,5-dimethylisoxazol-4-yl)-3-(1-methyl-1H-pyrazol-4-yl)-1H-pyrrolo[3,2-b]pyridin-1-yl)-3,5-diethoxybenzoic acid], for which the pIC50 was 5.10 to 6.00. To `Cc1noc(C)c1-c1cnc2c(-c3ccccc3)cn(-c3ccc(C(=O)O)cc3OC(F)(F)F)c2c1` [P-0196, 4-(6-(3,5-dimethylisoxazol-4-yl)-3-phenyl-1H-pyrrolo[3,2-b]pyridin-1-yl)-3-(trifluoromethoxy)benzoic acid] belongs 5.10 to 6.00; to `Cc1noc(C)c1-c1cnc2c(c1)c(-c1c(Cl)cc(C(=O)O)cc1Cl)cn2[C@@H](C)c1ccccn1` [P-0197, (S)-3,5-dichloro-4-(5-(3,5-dimethylisoxazol-4-yl)-1-(1-(pyridin-2-yl)ethyl)-1H-pyrrolo[2,3-b]pyridin-3-yl)benzoic acid], 3.00 to 5.10. To `Cc1noc(C)c1-c1cnc2c(c1)c(-c1c(Cl)cc(C(=O)O)cc1OC(F)(F)F)cn2C(C1CC1)C1CC1` [P-0198, 3-chloro-4-(1-(dicyclopropylmethyl)-5-(3,5-dimethylisoxazol-4-yl)-1H-pyrrolo[2,3-b]pyridin-3-yl)-5-(trifluoromethoxy)benzoic acid] belongs 3.00 to 5.10. In the case of `Cc1noc(C)c1-c1cnc2c(c1)c(-c1ccc(C(=O)O)cc1OC(F)(F)F)cn2C(CC#N)C1CC1` (stereo not shown) [P-0199, 4-(1-(2-cyano-1-cyclopropylethyl)-5-(3,5-dimethylisoxazol-4-yl)-1H-pyrrolo[2,3-b]pyridin-3-yl)-3-(trifluoromethoxy)benzoic acid], the pIC50 is 3.00 to 5.10.

For the molecule `Cc1noc(C)c1-c1cnc2c(c1)c(-c1ccc(C(=O)O)cc1OC(F)(F)F)cn2C(CC#N)C1CCCC1` (stereo not shown) [P-0200, 4-(1-(2-cyano-1-cyclopentylethyl)-5-(3,5-dimethylisoxazol-4-yl)-1H-pyrrolo[2,3-b]pyridin-3-yl)-3-(trifluoromethoxy)benzoic acid], the pIC50 was 3.00 to 5.10. For `CCOc1cc(C(=O)O)cc(OCC)c1-n1cc(-c2cnc(OC)nc2)c2ncc(-c3c(C)noc3C)cc21` [P-0201, 4-(6-(3,5-dimethylisoxazol-4-yl)-3-(2-methoxypyrimidin-5-yl)-1H-pyrrolo[3,2-b]pyridin-1-yl)-3,5-diethoxybenzoic acid], the negative-log IC50 (pIC50) is 5.10 to 6.00. As to `Cc1noc(C)c1-c1cnc2c(c1)c(-c1ccc(C(=O)O)cc1OC(F)(F)F)cn2S(=O)(=O)C1CC1` [P-0202, 4-(1-(cyclopropylsulfonyl)-5-(3,5-dimethylisoxazol-4-yl)-1H-pyrrolo[2,3-b]pyridin-3-yl)-3-(trifluoromethoxy)benzoic acid], the pIC50 is 5.10 to 6.00. Regarding `Cc1noc(C)c1-c1cnc2c(c1)c(-c1ccc(C(=O)O)cc1OC(F)(F)F)cn2-c1ccnc(C(C)C)c1` [P-0203, 4-(5-(3,5-dimethylisoxazol-4-yl)-1-(2-isopropylpyridin-4-yl)-1H-pyrrolo[2,3-b]pyridin-3-yl)-3-(trifluoromethoxy)benzoic acid], the pIC50 was 5.10 to 6.00. In the case of `Cc1noc(C)c1-c1cnc2c(c1)c(-c1ccc(C(=O)O)cc1OC(F)(F)F)cn2-c1cnccc1C#N` [P-0204, 4-(1-(4-cyanopyridin-3-yl)-5-(3,5-dimethylisoxazol-4-yl)-1H-pyrrolo[2,3-b]pyridin-3-yl)-3-(trifluoromethoxy)benzoic acid], the pIC50 was 3.00 to 5.10. With `CCOc1cc(C(=O)O)cc(F)c1-n1cc(-c2ccccc2)c2ncc(-c3c(C)noc3C)cc21` [P-0205, 4-(6-(3,5-dimethylisoxazol-4-yl)-3-phenyl-1H-pyrrolo[3,2-b]pyridin-1-yl)-3-ethoxy-5-fluorobenzoic acid], the pIC50 is 5.10 to 6.00.

Consider `CCOc1cccc(C#N)c1-n1cc(-c2ccccc2)c2ncc(-c3c(C)noc3C)cc21` [P-0206, 2-(6-(3,5-dimethylisoxazol-4-yl)-3-phenyl-1H-pyrrolo[3,2-b]pyridin-1-yl)-3-ethoxybenzonitrile], for which the pIC50 is 3.00 to 5.10.

As to `Cc1noc(C)c1-c1cnc2c(-c3ccccc3)cn(-c3c(Cl)cccc3C#N)c2c1` [P-0207, 3-chloro-2-(6-(3,5-dimethylisoxazol-4-yl)-3-phenyl-1H-pyrrolo[3,2-b]pyridin-1-yl)benzonitrile], the pIC50 is 5.10 to 6.00. With `CCOc1cc(C(=O)O)cc(OCC)c1-n1cc(C2=CCC(F)(F)CC2)c2ncc(-c3c(C)noc3C)cc21` [P-0208, 4-(3-(4,4-difluorocyclohex-1-en-1-yl)-6-(3,5-dimethylisoxazol-4-yl)-1H-pyrrolo[3,2-b]pyridin-1-yl)-3,5-diethoxybenzoic acid], the pIC50 was 5.10 to 6.00. To `CCOc1cc(C(=O)O)cc(OCC)c1-n1cc(-c2ccc(F)c(Cl)c2)c2ncc(-c3c(C)noc3C)cc21` [P-0209, 4-(3-(3-chloro-4-fluorophenyl)-6-(3,5-dimethylisoxazol-4-yl)-1H-pyrrolo[3,2-b]pyridin-1-yl)-3,5-diethoxybenzoic acid] belongs 5.10 to 6.00. Consider `CCOc1cc(C(=O)O)cc(OCC)c1-n1cc(CC2CCC2)c2ncc(-c3c(COC)noc3C)cc21` [P-0210, 4-(3-(cyclobutylmethyl)-6-(3-(methoxymethyl)-5-methylisoxazol-4-yl)-1H-pyrrolo[3,2-b]pyridin-1-yl)-3,5-diethoxybenzoic acid], for which the pIC50 was 3.00 to 5.10.

As to `Cc1cnccc1-n1cc(-c2ccc(C(=O)O)cc2OC(F)(F)F)c2cc(-c3c(C)noc3C)cnc21` [P-0211, 4-(5-(3,5-dimethylisoxazol-4-yl)-1-(3-methylpyridin-4-yl)-1H-pyrrolo[2,3-b]pyridin-3-yl)-3-(trifluoromethoxy)benzoic acid], the pIC50 was 5.10 to 6.00. The value for `Cc1noc(C)c1-c1cnc2c(c1)c(-c1ccc(C(=O)O)cc1OC(F)(F)F)cn2C1CCS(=O)(=O)CC1` [P-0212, 4-(5-(3,5-dimethylisoxazol-4-yl)-1-(1,1-dioxidotetrahydro-2H-thiopyran-4-yl)-1H-pyrrolo[2,3-b]pyridin-3-yl)-3-(trifluoromethoxy)benzoic acid] was 3.00 to 5.10; that for `Cc1noc(C)c1-c1cnc2c(c1)c(-c1ccc(C(=O)O)cc1OC(C)C)cn2C(C1CC1)C1CC1` [P-0213, 4-(1-(dicyclopropylmethyl)-5-(3,5-dimethylisoxazol-4-yl)-1H-pyrrolo[2,3-b]pyridin-3-yl)-3-isopropoxybenzoic acid] was 3.00 to 5.10; that for `Cc1noc(C)c1-c1cnc2c(c1)c(-c1ccc(C(=O)O)cc1OCC(F)(F)F)cn2C(C1CC1)C1CC1` [P-0214, 4-(1-(dicyclopropylmethyl)-5-(3,5-dimethylisoxazol-4-yl)-1H-pyrrolo[2,3-b]pyridin-3-yl)-3-(2,2,2-trifluoroethoxy)benzoic acid] was 3.00 to 5.10.
